“And” between values parts separate entries of the source, which are not always exact repeats. Equal entries are not always repeated. “Also recorded” adds a separate entry of the source. Square brackets hold non-standard residues; d marks the D form. Peptide text beside a SMILES is read from it. dNMeL = CN[C@H](CC(C)C)C(=O)O
How the values were obtained:
[1] = target: T1, synthetic peptide fragment corresponding to residues 11 to 25 of the Alzheimer's Aβ peptide (Homo sapiens, UniProt P05067); assay: thioflavin T fluorescence assay of Aβ peptide fragment aggregation into amyloid fibrils; type: biochemical
T1 construct: residues 11 to 25 of the Alzheimer's Aβ peptide
Protocol: Peptide X (SEQ ID NO: 2) was dissolved in water to a concentration of 10 mM (about 10 mg/ml). […]

[2] = target: T2, Alzheimer's Aβ peptide fragment (Homo sapiens, UniProt P05067); assay: electron microscopy of Aβ peptide fragment aggregation; type: biochemical; settings: 500 mM (so in the source) Peptide X, FIGS. 6 and 7
T2 construct: residues 11 to 25 of the Alzheimer's Aβ peptide
Protocol: Peptide X (SEQ ID NO: 2) was dissolved in water to a concentration of 10 mM (about 10 mg/ml). Alzheimer's Aβ peptide fragment, at a concentration of 50/M (about 0.1 mg/ml) in 50 mM sodium acetate buffer (pH 5.0), was incubated at 25° C. in the absence or presence of Peptide X (SEQ ID NO: 2) at concentrations ranging from 100 μM to 1 mM; the aggregation of the Aβ peptide fragment into insoluble β-fibres in the solutions was determined quantitatively after 20 minutes by measuring the fluorescence of 1%M added thioflavin T at 482 nm using an excitation wavelength of 440 nm. […] aliquots of these solutions were then analysed by electron microscopy to confirm that Peptide X (SEQ ID NO: 2) had inhibited and/or reversed the aggregation of the Alzheimer's Aβ peptide fragment into insoluble β-fibres.

[3] = solubility in aqueous solutions; type: physicochemical; settings: over a wide range of pH values
Description: The two positively charged arginine side chains assist the peptide to penetrate cell membranes and the blood-brain barrier by making electrostatic interactions with the negatively charged phosphate head groups of their constituent phospholipid molecules, resulting in the formation of inverted micelles which carry the peptide molecules across these membranes.

CC(=O)N[C@H](CC(C)C)C(=O)N(C)[C@H](CC(C)C)C(=O)N[C@H](CC(C)C)C(=O)N(C)[C@H](CC(C)C)C(=O)N[C@H](CCCNC(=N)N)C(=O)N[C@H](CCCNC(=N)N)C(N)=O [Peptide X, Nα-acetyl-(D-leucine)-(Nα-methyl-D-leucine)-(D-leucine)-(Nα-methyl-D-leucine)-(D-arginine)-(D-arginine)-NH2] (Ac-[dL][dNMeL][dL][dNMeL][dR][dR]-NH2)
inhibition at 200 µM ([1]; 200 μM Peptide X, Aβ fragment in 50 mM sodium acetate pH 5.0, 25° C., 20 minutes, FIG. 5): > 60% | disaggregation of preformed amyloid fibrils ([1]; Peptide X added to the Aβ peptide fragment after incubation): able to disaggregate preformed amyloid fibrils | reduction in Alzheimer's Aβ peptide aggregation ([1]; Peptide X concentration of 100 mM (so in the source), FIG. 5): 50% | inhibition of aggregation of Aβ peptide fragment into amyloid fibrils by electron microscopy [2]: almost completely inhibited aggregation; also recorded: substantial elimination of aggregation | solubility [3]: ≥ 10000 µM and ≥ 10000 µg/mL

From patent publication US7060671B1, “Peptides containing N-substituted D-amino acids for preventing β-strand association” (Senexis Limited, priority 1999, dated 2006)
